Measurements taken from patent publication US5658890A, “C-nucleoside isostere of nicotinamide adenine dinucleotide, analogs thereof and use as anti-cancer agent” (Sloan-Kettering Institute for Cancer Research, priority 1995, dated 1997).
Like-named read-outs stand apart in the source and are kept apart here.

Legend:
[1] = system: murine leukemia L1210 cells; experiment: Cytotoxicity to murine leukemia L1210 cells; type: cell-based; conditions: Mus musculus, incubated 24 and 48 hr, cells counted in a Coulter counter, read-out: inhibits the proliferation of L1210 cells by 50% (IC50)
Method: 1. Cytoxicity of 5-(β-D-ribofuranosyl)nicotinamide-(5'-5")-adenosine pyrophosphate (Compound 2, CNAD) to murine leukemia L1210 cells.
Murine leukemia L1210 cells were grown in RPMI 1640 medium. Logarithmically growing cells were incubated with various concentrations of CNAD for 24 and 48 hr periods and the cytoxicity determined by counting the cells in a Coulter counter.

[2] = target: T1, horse liver alcohol dehydrogenase (ADH) (Equus caballus, UniProt P00327); experiment: Inhibition of horse liver alcohol dehydrogenase (ADH), NADH absorbance at 340 nm; type: biochemical; conditions: for Ki: pH 8.0
T1 construct: horse liver alcohol dehydrogenase (ADH); from tissue; host or cells: horse liver
T1 sequence (P00327 whole entry): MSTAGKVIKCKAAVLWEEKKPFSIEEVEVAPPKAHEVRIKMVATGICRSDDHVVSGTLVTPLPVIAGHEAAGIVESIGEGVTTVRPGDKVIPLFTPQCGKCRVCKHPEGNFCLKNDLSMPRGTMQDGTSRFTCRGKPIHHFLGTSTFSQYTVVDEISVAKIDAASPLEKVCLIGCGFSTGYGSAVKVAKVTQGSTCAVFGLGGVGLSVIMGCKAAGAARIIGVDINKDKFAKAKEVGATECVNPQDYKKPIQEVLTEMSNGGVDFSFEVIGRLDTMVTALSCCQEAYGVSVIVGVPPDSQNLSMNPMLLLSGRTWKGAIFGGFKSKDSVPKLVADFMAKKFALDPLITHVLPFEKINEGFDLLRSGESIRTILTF
Method: 2. Inhibition of horse liver alcohol dehydrogenase (ADH) and bovine glutamate dehydrogenase (GDH) Rate measurements for each of the dehydrogenases used in this study are based on the spectral properties of NADH. […] Rates, using absorbance measurements, were calculated using a millimolar extinction coefficient of 6.22/cm for NADH. Alcohol dehydrogenase assays were run at pH 8.0, using 0.1M sodium phosphate buffer. […] All kinetic assays were run at least in duplicate. Initial values of inhibition constants were estimated from Lineweaver-Burk plots, using linear regression to obtain values for the slope and intercept of each line. Inhibition was judged to be competitive if the values obtained for the intercepts of the appropriate polots differed by less than three standard deviations as determined by linear regression. Values for the inhibition constant, Kis was obtained using the relationship: […] where S(+) and S(-) are the slopes of the plots in the presence and absence of inhibitor, respectively, and [I] is the concentration of total added inhibitor. Where a noncompetitive pattern of inhibition was observed, a similar analysis was used to obtain Kii. Km for conenzyme was obtained from the slope and intercept obtained in plots in the absence of inhibitor, using the relationship: Km =[…]. Values of effective inhibition constants and patterns of inhibition for CNAD binding to ADH were obtained by direct least-squares fits to the nonreciprocal forms of the Michaelis-Menten rate equations. Kinetic data were fit to the following relationships, assuming both competitive and noncompetitive inhibition respectively: vo =[…]]} vo =[…] vo is the initial reaction rate, Vm is the maximal rate, and Km and [A] the Michaelis constant and concentration of the variable substrate, respectively. The pattern of inhibition considered to best account for the observed data was that giving both the smallest residuals between observed and calculated values, and the smallest standard errors in the computed kinetics constants. […] Derivation of this rate equation assumes the presence of a tight binding inhibitor, i.e., that [I]~[E]. In this experiment both inhibitor and enzyme concentration were varied. Initial rates vo were measured at total concentrations of CNAD ([I]) of 0, 2.4, 9.6, and 19.2 nM over four concentrations of ADH ([E]). Concentrations of ethanol and NAD were fixed at 1.2 […] and 87 μM at pH 8.0. The apparent inhibition constant with respect to NAD, Ki', was then obtained by non-linear least-squares fit to the rate equation under the array of experimental conditions employed. The true rate constant Ki was obtained from the apparent rate constant Ki was obtained from the apparent rate constant Ki, via the relationship: […]

[3] = target: bovine glutamate dehydrogenase (GDH) (Bos taurus, UniProt P00366); experiment: Inhibition of bovine glutamate dehydrogenase (GDH); type: biochemical
bovine glutamate dehydrogenase (GDH), sequence (P00366 58-558): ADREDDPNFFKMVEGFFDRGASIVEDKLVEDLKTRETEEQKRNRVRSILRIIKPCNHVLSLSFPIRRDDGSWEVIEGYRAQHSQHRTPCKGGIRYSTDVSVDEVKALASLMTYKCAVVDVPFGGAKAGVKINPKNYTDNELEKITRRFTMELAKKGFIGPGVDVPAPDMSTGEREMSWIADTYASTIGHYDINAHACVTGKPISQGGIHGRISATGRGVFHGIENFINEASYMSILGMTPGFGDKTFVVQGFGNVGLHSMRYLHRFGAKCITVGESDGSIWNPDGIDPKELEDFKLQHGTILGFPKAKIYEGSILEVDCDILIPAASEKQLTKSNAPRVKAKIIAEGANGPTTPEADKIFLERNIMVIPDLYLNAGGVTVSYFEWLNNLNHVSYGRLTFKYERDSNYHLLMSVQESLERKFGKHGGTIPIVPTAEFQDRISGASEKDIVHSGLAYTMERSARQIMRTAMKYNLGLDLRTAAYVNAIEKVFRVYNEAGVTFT
Method: 2. Inhibition of horse liver alcohol dehydrogenase (ADH) and bovine glutamate dehydrogenase (GDH)
Rate measurements for each of the dehydrogenases used in this study are based on the spectral properties of NADH. In assays with NAD as a substrate, rates were determined by measuring the increase in absorbance at 340 nm resulting from the conversion of NAD to NADH. Rates, using absorbance measurements, were calculated using a millimolar extinction coefficient of 6.22/cm for NADH.
Alcohol dehydrogenase assays were run at pH 8.0, using 0.1M sodium phosphate buffer. Glutamate dehydrogenase assays were at pH 7.0 in 0.1M sodium phosphate buffer, containing 10 μm EDTA. All kinetic assays were run at least in duplicate.
Initial values of inhibition constants were estimated from Lineweaver-Burk plots, using linear regression to obtain values for the slope and intercept of each line. Inhibition was judged to be competitive if the values obtained for the intercepts of the appropriate polots differed by less than three standard deviations as determined by linear regression. Values for the inhibition constant, Kis was obtained using the relationship:
where S(+) and S(-) are the slopes of the plots in the presence and absence of inhibitor, respectively, and [I] is the concentration of total added inhibitor. […]

[4] = system: inosine monophosphate dehydrogenase (IMPDH); experiment: Inhibition of inosine monophosphate dehydrogenase by the NAD analog; type: biochemical
[5] = system: lactate dehydrogenase (LDH); experiment: Inhibition of lactate dehydrogenase by the NAD analog; type: biochemical
[6] = system: malate dehydrogenase (MDH); experiment: Inhibition of malate dehydrogenase by the NAD analog; type: biochemical
[7] = target: T2, Human IMPDH type II (Homo sapiens, UniProt P12268); experiment: Inhibition of human IMPDH type II by TAD analogues; type: biochemical
T2 construct: Dr. George D. Markham, Institute for Cancer Research, Fox Chase Cancer Center, Fox Chase, Pa
Method: Purified human recombinant IMPDH-II was obtained from Dr. George D. Markham of the Institute for Cancer Research, Fox Chase Cancer Center, Fox Chase, Pa. Horse liver ADH was obtained in crystalline form from Boehringer Mannheim Biochemicals, Indianapolis. β-Nicotinamide adenine dinucleotide (NAD) in crystalline free acid form was also obtained from Boehringer. Inosine 5'-monophosphate (IMP) was purchased from Sigma Chemical Co., St. Louis as the disodium salt. All solutions were prepared using nano-pure water.
Kinetic constants of the inhibitors with respect to NAD were obtained by monitoring spectrophotometrically the rate of production of NADH during the reaction.
Human IMPDH type II was stored at -70° C. in buffer containing 20 mM KCl, 1 mM EDTA, 1 mM DTT and 20 mM Tris-HCl adjusted to pH 8 at 23° C. In preparation for the assays, a frozen aliquot was thawed rapidly and filtered through a 0.45 μm acetate filter. Protein concentration was determined from a Coomassie Assay. In some cases the enzyme was diluted 4:1 in similar 20 mM Tris buffer. NAD and IMP solutions were prepared based on molecular weight.
Combination of the reactants was performed as follows: An aliquot of substrate solution was pipetted down one side of a cuvet, one of co-factor down another side, and inhibitor down a third. The volume was brought to 990 μL with reaction buffer and the cuvet was agitated. This mixture was allowed to incubate in the spectrophotometer sample holder for five minutes before the reaction was started, the temperature held at 37° C. by a circulating water bath. The reaction was initiated by the introduction of 10 μL of enzyme solution on a mixing plunger, and NADH production was monitored for between two and 10 minutes, depending on the activity of the protein solution.
The uninhibited rate of reaction as a function of cofactor concentration was first established. Velocities at four NAD concentrations and saturating substrate concentrations were measured and Km for NAD obtained. Inhibitor was then introduced to the reaction mixture with an NAD concentration in the vicinity of Km.
Lineweaver-Burk plots were used to assess the quality of the data and to initially characterize the mode of inhibition with respect to NAD. […] Consequently, values of kii (intercept) and kis (slope) reported in Table I were obtained from direct least squares fits to the expression:
where vo is the measured initial rate, Vm is the maximum rate, Km is the Michaelis constant of NAD, and [A] is concentration of NAD.

[8] = target: T3, horse liver alcohol dehydrogenase (LADH) (Equus caballus, UniProt P00327); experiment: Preliminary assays of horse liver alcohol dehydrogenase (LADH) inhibition; type: biochemical; conditions: ethanol 1.2 mM, pH 8, read-out: level of inhibition of horse liver alcohol dehydrogenase (LADH)
T3 construct: Horse liver ADH was obtained in crystalline form; purchased Boehringer Mannheim Biochemicals, Indianapolis; host or cells: horse liver
T3 sequence (P00327 whole entry): as the sequence (P00327 whole entry) above
Method: Purified human recombinant IMPDH-II was obtained from Dr. George D. Markham of the Institute for Cancer Research, Fox Chase Cancer Center, Fox Chase, Pa. Horse liver ADH was obtained in crystalline form from Boehringer Mannheim Biochemicals, Indianapolis. β-Nicotinamide adenine dinucleotide (NAD) in crystalline free acid form was also obtained from Boehringer. Inosine 5'-monophosphate (IMP) was purchased from Sigma Chemical Co., St. Louis as the disodium salt. All solutions were prepared using nano-pure water. Kinetic constants of the inhibitors with respect to NAD were obtained by monitoring spectrophotometrically the rate of production of NADH during the reaction. The course of the reaction was followed by measuring the changing absorbance of the reaction mixture at 340 nm, the absorbance peak for NADH, using a Beckman DU-65 spectrophotometer, and an extinction of 6.22 A mM^-1 cm^-1 for the reduced cofactor.(51) Preliminary assays of alcohol dehydrogenase were performed in a similar manner to that described above. LADH in crystalline suspension was spun down to a pellet and dissolved in 100 mM Tris-HCl buffer containing 100 mM KCl adjusted to pH 8 at 23° C. Stock solutions of NAD and ethanol were prepared in buffer based on molecular weight and volume, respectively. Ethanol was introduced as an aliquot of stock solution and its concentration was kept constant at 1.2 mM while NAD concentration was varied by serial dilution of the stock solution.

[9] = system: cell membranes; conditions: compared with tiazofurin; personal communication (ref. 35); cited from earlier work
[10] = IMPDH type II, read-out: Kis (binding)
[11] = NAD variable substrate, IMP constant at 100 μM, non-competitive, 37° C., read-out: Kii
[12] = NAD variable substrate, IMP constant at 100 μM, non-competitive, 37° C., read-out: Kis

| Structure (SMILES) | pattern of inhibition of ADH with respect to NAD [2] | Ki [7, 10] [µM] | Ki [7, 11] [µM] | Ki [7, 12] [µM] | Ki [8] [µM] | other results |
| --- | --- | --- | --- | --- | --- | --- |
| NC(=O)c1cncc([C@@H]2O[C@H](COP(=O)(O)OP(=O)(O)OC[C@H]3O[C@@H](n4cnc5c(N)ncnc54)[C@H](O)[C@@H]3O)[C@@H](O)[C@H]2O)c1 [CNAD, 5-(β-D-ribofuranosyl)nicotinamide-(5'-5")-adenosine pyrophosphate] | non-competitive | – | – | – | – | IC50 [1]: 7 µM; inhibitory activity against alcohol dehydrogenase from horse liver (in words) [2]: highly potent and selective inhibitory activity; Ki ([2]; direct least-squares fit to Michaelis-Menten rate equations, read-out: apparent Ki (Ki') with respect to NAD): 0.006 µM; Ki ([2]; non-competitive, with respect to NAD, read-out: Ki, inhibition of ADH): 0.002 µM; pattern of inhibition of GDH with respect to NAD [3]: competitive; Ki ([3]; competitive, pH 7.0): 15 µM; pattern of inhibition of IMPDH with respect to NAD [4]: competitive; pattern of inhibition of LDH with respect to NAD [5]: competitive; pattern of inhibition of MDH with respect to NAD [6]: competitive |
| NC(=O)c1cccc([C@@H]2O[C@H](COP(=O)(O)OP(=O)(O)OC[C@H]3O[C@@H](n4cnc5c(N)ncnc54)[C@H](O)[C@@H]3O)[C@@H](O)[C@H]2O)n1 [C-PAD, 6-(β-D-ribofuranosyl)picolinamide-(5'-5")adenosine pyrophosphate] | competitive | – | – | – | – | Ki ([2]; competitive, read-out: Ki, inhibition of ADH with respect to NAD): 20 µM |
| NC(=O)c1csc([C@@H]2O[C@H](COP(=O)(O)OP(=O)(O)OC[C@H]3O[C@@H](n4cnc5c(N)ncnc54)[C@@H](F)[C@@H]3O)[C@@H](O)[C@H]2O)n1 [Compound 5] | – | 2.9 | 2.9 ± 0.5 | 13 | > 10000 | – |
| NC(=O)c1csc([C@@H]2O[C@H](COP(=O)(O)C(F)(F)P(=O)(O)OC[C@H]3O[C@@H](n4cnc5c(N)ncnc54)[C@H](O)[C@@H]3O)[C@@H](O)[C@H]2O)n1 [β-CF2 -TAD, β-difluoromethylene TAD] | – | – | 0.17 ± 0.03 | 0.3 ± 0.2 | – | Ki ([7]; IMPDH type II, read-out: Ki): 0.17 µM; penetration of cell membranes [9]: can penetrate cell membranes although not as efficiently as tiazofurin |
| NC(=O)c1csc([C@@H]2O[C@H](COP(=O)(O)OP(=O)(O)OC[C@H]3O[C@@H](n4cnc5c(N)ncnc54)[C@H](O)[C@@H]3F)[C@@H](O)[C@H]2O)n1 [Compound 4, P^1-(Tiazofurin-5'-yl)-P^2-(3'-deoxy-3'-fluoroadenosin-5'-yl)pyrophosphate] | – | 0.7 | 0.7 ± 0.1 | 1.5 ± 0.6 | 100 | – |
| NC(=O)c1csc([C@@H]2O[C@H](COP(=O)(O)OP(=O)(O)OC[C@H]3O[C@@H](n4cnc5c(N)ncnc54)[C@H](F)[C@@H]3O)[C@@H](O)[C@H]2O)n1 [Compound 3, P^1-(Tiazofurin-5'-yl)-P^2-(2'-deoxy-2'-fluoroadenosin 5'-yl)pyrophosphate] | – | 0.5 | 0.5 ± 0.1 | 6 ± 12 | 100 | – |
